# Assay results from EP1027887B1, “Matrix controlled release device” (Pfizer Products Inc., priority 1999, dated 2000).
# Experiments:
# Type in all cases: physicochemical
# [1] = Water solubility of the drug
# [2] = In vitro dissolution test in 30 ml MFD solution (Reference Example 5)
# Description: (§1) Phosphate buffered saline solution (PBS) was prepared comprising 20 mM sodium phosphate, […] potassium phosphate, 87 mM NaCl and 0.2 mM KCl, adjusted to pH 6.5. Four in vitro dissolution tests were performed in 35 mL of the PBS solution at 37°C to test the effectiveness of drug release from the dosage composition of the invention as measured against Controls A, B and C. Drug concentrations over time were determined by periodically withdrawing samples of each of the four solutions, centrifuging the samples for 1 minute at 13,000 rpm to pellet any undissolved drug, sampling the supernate, and analyzing the sample by High Performance Liquid Chromatography (HPLC) to thereby calculate drug concentrations.
# (§2) A Model Fasted Duodenum (MFD) solution which mimics the chemical environment in the small intestine was prepared, comprising the PBS solution described in Example 1 mixed with 14.7 mM sodium taurocholic acid and 2.8 mM of 1-palmitoyl-2-oleyl-sn-glycero-3-phosphocholine. Four in vitro dissolution tests were performed in 500 mL of the so-prepared MFD solution to test the effectiveness of drug release from the dosage composition of the invention against Controls D, E and F. The sampling and analysis were carried out as in Example 1.
# An MFD solution was prepared as in Example 2. Four in vitro dissolution tests were performed in 30 ml of the MFD solution to test the effectiveness of drug release from the dosage composition of the invention against Controls J, K and L. The sampling and analysis were carried out as in Example 1.
# [3] = In vitro dissolution test in 500 mL Model Fasted Duodenum (MFD) solution (Example 2); settings: 500 mL MFD solution
# Description: as §1, §2
# [4] = In vitro dissolution test in 35 mL PBS solution (Example 1); settings: 35 mL PBS pH 6.5, 37°C
# Description: as §1
# [5] = In vitro dissolution test in 40 mL PBS solution (Reference Example 3); settings: 37°C
# Description: as §1
# As a control (Control G), tablets were similarly prepared except rather than using the drug/CAP solid dispersion, a mixture of 1 part crystalline drug to 3 parts CAP was used. As a second control (Control H), 26 mg of crystalline drug alone was used. As a third control (Control I), 105.3 mg of the solid dispersion with no erodible matrix was used. In order to determine the drug release profile of the dosage form of the present invention as compared to the controls, in vitro dissolution tests in 40 mL of the PBS solution of Example 1 at 37°C were performed as in Example 1.
smiles,measurement,setting,value
"CN[C@H]1CC[C@@H](c2ccc(Cl)c(Cl)c2)c2ccccc21.Cl (relative stereo) [(1S-cis)-4-(3,4-dichlorophenyl)-1,2,3,4-tetrahydro-N-methyl-1-napthalenamine hydrochloride]",water solubility,[1],70 µg/mL
"CN[C@H]1CC[C@@H](c2ccc(Cl)c(Cl)c2)c2ccccc21.Cl (relative stereo) [Control K, (1S-cis)-4-(3,4-dichlorophenyl)-1,2,3,4-tetrahydro-N-methyl-1-napthalenamine hydrochloride]",AUC,[2]; time 0 min,0 µg·min/mL
same,[Drug],[2]; time 0 min,0 µg/mL
same,AUC,[2]; time 10 min,1073 µg·min/mL
same,[Drug],[2]; time 10 min,0 µg/mL
same,AUC,[2]; time 20 min,5459 µg·min/mL
same,[Drug],[2]; time 20 min,358 µg/mL
same,AUC,[2]; time 40 min,16706 µg·min/mL
same,[Drug],[2]; time 40 min,520 µg/mL
same,AUC,[2]; time 90 min,37083 µg·min/mL
same,[Drug],[2]; time 90 min,605 µg/mL
same,AUC,[2]; time 120 min,40231 µg·min/mL
same,[Drug],[2]; time 120 min,210 µg/mL
same,AUC,[2]; time 240 min,52796 µg·min/mL
same,[Drug],[2]; time 240 min,130 µg/mL
same,AUC,[2]; time 360 min,70528 µg·min/mL
same,[Drug],[2]; time 360 min,159 µg/mL
same,AUC,[2]; time 540 min,108647 µg·min/mL
same,[Drug],[2]; time 540 min,136 µg/mL
same,[Drug],[2]; time 1200 min,128 µg/mL
"CON(C)C(=O)C(O)[C@H](Cc1ccccc1)NC(=O)c1cc2cc(Cl)ccc2[nH]1 (stereo in doubt) [Control E, [R-(R*S*)]-5 chloro-N-[2-hydroxy-3-[(methoxymethylamino)-3-oxo-1(phenylmethyl)propyl]propyl]-1H-indole-2-carboxymide]",AUC,[3]; time 0 min,0 µg·min/mL
same,[Drug],[3]; time 0 min,0.0 µg/mL
same,AUC,[3]; time 10 min,21 µg·min/mL
same,[Drug],[3]; time 10 min,6.9 µg/mL
same,AUC,[3]; time 20 min,72 µg·min/mL
same,[Drug],[3]; time 20 min,3.2 µg/mL
same,AUC,[3]; time 40 min,172 µg·min/mL
same,[Drug],[3]; time 40 min,6.8 µg/mL
same,AUC,[3]; time 90 min,795 µg·min/mL
same,[Drug],[3]; time 90 min,18.1 µg/mL
same,AUC,[3]; time 120 min,1281 µg·min/mL
same,[Drug],[3]; time 120 min,14.3 µg/mL
same,AUC,[3]; time 180 min,2219 µg·min/mL
same,[Drug],[3]; time 180 min,17.0 µg/mL
same,AUC,[3]; time 240 min,2992 µg·min/mL
same,[Drug],[3]; time 240 min,8.8 µg/mL
same,AUC,[3]; time 360 min,4030 µg·min/mL
same,[Drug],[3]; time 360 min,8.5 µg/mL
same,AUC,[3]; time 525 min,5756 µg·min/mL
same,[Drug],[3]; time 525 min,10.7 µg/mL
same,AUC,[3]; time 720 min,7525 µg·min/mL
same,[Drug],[3]; time 720 min,9.0 µg/mL
same,[Drug],[3]; time 1200 min,8.0 µg/mL
"O=C(N[C@@H](Cc1ccccc1)[C@@H](O)C(=O)N1C[C@@H](O)[C@@H](O)C1)c1cc2cc(Cl)ccc2[nH]1 [Control B, 5-chloro-1H-indole-2-carboxylic acid [(1S) -benzyl-3-((3R,4S) -dihydroxypyrrolidin-1-yl-) - (2R) -hydroxy-3-oxypropyl]amide]",AUC,[4]; time 0 min,0 µg·min/mL
same,[Drug],[4]; time 0 min,0.0 µg/mL
same,AUC,[4]; time 4 min,180 µg·min/mL
same,[Drug],[4]; time 4 min,90.1 µg/mL
same,AUC,[4]; time 10 min,754 µg·min/mL
same,[Drug],[4]; time 10 min,101.0 µg/mL
same,AUC,[4]; time 20 min,1753 µg·min/mL
same,[Drug],[4]; time 20 min,98.8 µg/mL
same,AUC,[4]; time 40 min,4402 µg·min/mL
same,[Drug],[4]; time 40 min,166.1 µg/mL
same,AUC,[4]; time 90 min,12252 µg·min/mL
same,[Drug],[4]; time 90 min,147.9 µg/mL
same,AUC,[4]; time 120 min,16937 µg·min/mL
same,[Drug],[4]; time 120 min,164.5 µg/mL
same,AUC,[4]; time 180 min,25991 µg·min/mL
same,[Drug],[4]; time 180 min,137.3 µg/mL
same,AUC,[4]; time 240 min,34362 µg·min/mL
same,[Drug],[4]; time 240 min,141.8 µg/mL
same,AUC,[4]; time 360 min,52528 µg·min/mL
same,[Drug],[4]; time 360 min,161.0 µg/mL
same,AUC,[4]; time 525 min,80574 µg·min/mL
same,[Drug],[4]; time 525 min,179.0 µg/mL
same,AUC,[4]; time 720 min,113346 µg·min/mL
same,[Drug],[4]; time 720 min,157.2 µg/mL
"O=C(N[C@@H](Cc1ccccc1)[C@@H](O)C(=O)N1C[C@@H](O)[C@@H](O)C1)c1cc2cc(Cl)ccc2[nH]1 [Control H, 5-chloro-1H-indole-2-carboxylic acid [(1S) -benzyl-3-((3R,4S) -dihydroxypyrrolidin-1-yl-) - (2R) -hydroxy-3-oxypropyl]amide]",AUC,[5]; time 0 min,0 µg·min/mL
same,[Drug],[5]; time 0 min,0.0 µg/mL
same,AUC,[5]; time 10 min,0 µg·min/mL
same,[Drug],[5]; time 10 min,107.8 µg/mL
same,AUC,[5]; time 20 min,323 µg·min/mL
same,[Drug],[5]; time 20 min,130.1 µg/mL
same,AUC,[5]; time 40 min,1513 µg·min/mL
same,[Drug],[5]; time 40 min,109.1 µg/mL
same,AUC,[5]; time 90 min,3906 µg·min/mL
same,[Drug],[5]; time 90 min,118.1 µg/mL
same,AUC,[5]; time 120 min,9587 µg·min/mL
same,[Drug],[5]; time 120 min,121.8 µg/mL
same,AUC,[5]; time 180 min,13186 µg·min/mL
same,[Drug],[5]; time 180 min,151.7 µg/mL
same,AUC,[5]; time 240 min,21392 µg·min/mL
same,[Drug],[5]; time 240 min,170.4 µg/mL
same,AUC,[5]; time 360 min,31055 µg·min/mL
same,[Drug],[5]; time 360 min,135.3 µg/mL
same,AUC,[5]; time 540 min,49395 µg·min/mL
same,[Drug],[5]; time 540 min,134.8 µg/mL
same,AUC,[5]; time 720 min,73701 µg·min/mL
same,[Drug],[5]; time 720 min,168.3 µg/mL
CON(C)C(=O)[C@H](O)[C@H](Cc1ccccc1)NC(=O)c1cc2cc(Cl)ccc2[nH]1 [[R-(R*S*)]-5 chloro-N-[2-hydroxy-3-[(methoxymethylamino)-3-oxo-1(phenylmethyl)propyl]propyl]-1H-indole-2-carboxymide],solubility,[1],1 µg/mL
